From patent publication EP4671239A1, “ARYL SUBSTITUENT-CONTAINING DEGRADATION AGENT FOR CDK12/13, PREPARATION METHOD THEREFOR, AND PHARMACEUTICAL COMPOSITION AND USE THEREOF” (Shanghai Institute of Organic Chemistry, Chinese Academy of …, priority 2023, dated 2024)
Read-outs that look alike come from different tables or passages of the source.

Legend:
[1] = system: triple negative breast cancer cells MDA-MB-231; experiment: Proliferation-inhibiting activity on MDA-MB-231 cells (Cell Counting Kit-8); format: cell-based; details: Homo sapiens, 120 h; MDA-MB-231 cell line, 5 days, cck-8 (FIG. 3)
Description: The cell proliferation-inhibiting activity of the compounds was determined using Cell Counting Kit-8 Cell Viability Assay (Selleck.cn). The cells were seeded into a 384-well plate (CORNING® PS 3701) containing the corresponding culture medium and incubated in an incubator at 37°C with 5% CO2. After overnight incubation, a high-concentration stock solution of each compound to be tested was prepared; the compound was added to the 384-well plate according to a concentration gradient using an Echo® 650 Liquid Handler (LABCYTE®). After administration, the cell plate was placed in an incubator at 37°C with 5% CO2 and incubated for 5 days. Then, 5 µL of cck-8 reagent was added to each well of the 384-well plate using MULTIDROP® (Thermo Scientific™), and the plate was returned to the incubator for incubation for 1.5-2 h. After incubation, the plate was removed and centrifuged to remove bubbles. The absorbance of each well at 450 nm and 650 nm was obtained using EnVision® (PerkinElmer®). GraphPad Prism software (GraphPad Software Inc.) was used to process and analyze the data.

[2] = system: CDK12 and CDK13 proteins; experiment: Degradation activity on CDK12/13 in MDA-MB-231 cells (Western Blot); format: cell-based; details: for degradation of CDK12 and CDK13 protein levels in cells: 0.1µM or 0.3µM, 15 h, WB (FIG. 1); for degradation of CDK12 and CDK13 proteins: 1 µM, 15 hours
Description: (§1) Experimental methods: The cell line MDA-MB-231 was purchased from the American Type Culture Collection (ATCC). Conventional Western Blot was used for detection, as follows: MDA-MB-231 cells were seeded at a density of 2 x 10^5/mL in a 12-well plate, with 1 mL per well, and cultured overnight in an incubator in an adherent manner. Then, a certain concentration of compounds was added to act for 15 h. The cells were lysed with a lysis buffer, and protein samples were collected. An appropriate amount of the sample was taken for SDS-PAGE electrophoresis. After electrophoresis, the protein was transferred to a polyvinylidene fluoride (PVDF) membrane using a wet electro-transfer system. The PVDF membrane after electro-transfer was cut into several required strips, which were then placed in a blocking solution (5% skim milk powder diluted in TBS containing 0.1% Tween 20) and blocked at room temperature for 1.5 h. A primary antibody solution was prepared by diluting a primary antibody against the corresponding target protein in TBS containing 0.1% Tween 20 according to the dilution requirements of different antibodies, such as 1:1000 (CST), 1:3000 (Proteintech, Bethyl), and 1:200 (Santacruz). The blocked membrane was placed in the corresponding primary antibody solution and incubated at 4°C for 12-14 h. Then, the cells were washed three times with TBS containing 0.1% Tween 20, each time for 5 min. After washing, the membrane was placed in a secondary antibody solution (horseradish peroxidase-labeled goat anti-rabbit IgG, diluted at 1:2000 in TBS containing 0.1% Tween 20) and reacted at room temperature for 2 h. After washing the membrane three times as above, the membrane was developed with StarSignal plus reagent (GenStar®) and Omni-ECL reagent (Yazyme®), and photographed with Amersham Imager 800 system.

[3] = system: Cyclin K; experiment: Degradation of partner protein Cyclin K in MDA-MB-231 cells (Western Blot); format: cell-based; details: for time dependence of degradation of Cyclin K: WB (FIG. 2); for degradation of Cyclin K protein: after 15 hours
Description: as §1

[4] = system: CDK12 and CDK13 proteins; experiment: Degradation activity on CDK12/13 in MDA-MB-231 cells (Western Blot); format: cell-based; details: WB (FIG. 2A)
[5] = Pharmacokinetics and bioavailability test in rats (Example 57); format: in vivo; details: SD rats; for AUC(0-inf) / Tmax / MRT last / MRT inf: rat, plasma; for MRT last: read-out: MRT(0-t); for MRT inf: read-out: MRT(0-∞)
Description: (§2) Pharmacokinetics and bioavailability tests in rats. SD rats were given a single oral (10 mg/kg), intravenous (2.5 mg/kg) and intraperitoneal (10 mg/kg) dose, followed by animal blood sample collection at appropriate time points. Heparin was added for anticoagulation, and the samples were centrifuged at 8000 rpm for 6 min. The supernatant was collected and stored at -20°C for HPLC-MS analysis. The blood samples underwent protein precipitation with acetonitrile at 12 000 rpm * 10 min, and the supernatant was used for HPCL-MS analysis. The data underwent parameter fitting with DAS2.0, to obtain compartmental model and non-compartmental model parameters, respectively. The oral bioavailability of the compounds was calculated based on the area under the plasma concentration-time curve (AUC) data. […] Table 1. Pharmacokinetic experimental results of compound zlc-4-93

[6] = system: CDK12 and CDK13 proteins; experiment: Degradation activity on CDK12/13 in 22RV1 cells (Western Blot); format: cell-based; details: 22RV1 cells
Description: Experimental methods: The cell line, 22RV1 cell line was purchased from the American Type Culture Collection (ATCC). Conventional Western Blot was used for detection as follows: 22RV1 cells were seeded in a certain number in a 12-well plate, and cultured overnight in an incubator in an adherent manner. […] The cells were lysed with a lysis buffer, and samples were collected. Then, an appropriate amount of the samples was taken for SDS-PAGE electrophoresis. After electrophoresis, the proteins were transferred to nitrocellulose membranes using a semi-dry electro-transfer system. The nitrocellulose membrane was placed in a blocking solution (5% skim milk powder diluted in TBS containing 0.1% Tween 20) and blocked at room temperature for 2 h. The membranes were then placed in a primary antibody solution (1: 1000 diluted in TBS containing 0.1% Tween 20), respectively, and incubated at 4°C overnight. The cells were washed three times with TBS containing 0.1% Tween 20, each time for 15 min. The membrane was placed in a secondary antibody solution (horseradish peroxidase-labeled goat anti-rabbit IgG, diluted at 1:1000 in TBS containing 0.1% Tween 20) and reacted at room temperature for 1 h. After washing the membrane three times as above, the membrane was developed with ECL plus reagent and photographed using Amersham Imager 600 system.

[7] = Pharmacokinetics and bioavailability test in rats (Example 60); format: in vivo; details: SD rats
Description: as §2, with “2.” for “1.”, “compounds YJZ9069 and YJZ1102” for “compound zlc-4-93”

[8] = system: phosphorylation of serine at position 2 (phoSer2) of the C-terminal domain of RNA polymeraseII (RNA Pol II); experiment: Phosphorylation of Ser2 of the RNA Pol II C-terminal domain in 22RV1 cells (Western Blot); format: cell-based; details: different concentrations (FIG. 4B)
Description: Experimental methods: The cell line, 22RV1 cell line was purchased from the American Type Culture Collection (ATCC). Conventional Western Blot was used for detection as follows: 22RV1 cells were seeded in a certain number in a 12-well plate, and cultured overnight in an incubator in an adherent manner. Then, a certain concentration of compounds was added to act for 6 hours. The cells were lysed with a lysis buffer, and samples were collected. Then, an appropriate amount of the samples was taken for SDS-PAGE electrophoresis. After electrophoresis, the proteins were transferred to nitrocellulose membranes using a semi-dry electro-transfer system. The nitrocellulose membrane was placed in a blocking solution (5% skim milk powder diluted in TBS containing 0.1% Tween 20) and blocked at room temperature for 2 h. The membranes were then placed in a primary antibody solution (1: 1000 diluted in TBS containing 0.1% Tween 20), respectively, and incubated at 4°C overnight. The cells were washed three times with TBS containing 0.1% Tween 20, each time for 15 min. The membrane was placed in a secondary antibody solution (horseradish peroxidase-labeled goat anti-rabbit IgG, diluted at 1:1000 in TBS containing 0.1% Tween 20) and reacted at room temperature for 1 h. […]

For `N#Cc1ccc(N[C@H]2CC[C@H](N(C(=O)NCc3ccccc3)c3ccc(N4CCN(C5CCN(c6cc7c(cc6F)C(=O)N(C6CCC(=O)NC6=O)C7=O)CC5)CC4)cc3)CC2)nc1` (stereo partly drawn) [ZLC4-91], which IC50 [1] is on record?
The IC50 was 622 nM.

And the “degradation of CDK12 and CDK13 protein levels in cells” value (from here on “degradation … in cells”) [2]?
The value was “effectively degrade”.

And the “degradation of CDK12 and CDK13 proteins” value [2]?
The value was “almost completely degraded”.

And the “time dependence of degradation of Cyclin K” value [3]?
The value was “time-dependent degradation effect”.

What about the “degradation of Cyclin K protein” value [3] of the same compound?
Its value is “almost completely degraded”.

And the “time dependence of degradation of CDK12 and CDK13 proteins” value [4]?
Its value is “time-dependent manner”.

And the F ([5]; Oral 10 mg/kg, bioavailability calculated from AUC)?
The F was 46.80%.

What about the oral pharmacokinetic properties ([5]; summary in words of Table 1) of the same compound?
Its oral pharmacokinetic properties is “excellent”.

What about the AUC(0-inf) ([5]; iv, i.v. 2.5 mg/kg) of the same compound?
The AUC(0-inf) was 6880 ng·h/mL.

What about the Tmax ([5]; iv, i.v. 2.5 mg/kg) of the same compound?
Its Tmax is 0.08 h.

What about the MRT last ([5]; iv, i.v. 2.5 mg/kg) of the same compound?
Its MRT last is 2.2 h.

What about the MRT inf ([5]; iv, i.v. 2.5 mg/kg) of the same compound?
The MRT inf was 2.32 h.

What about the AUC(0-inf) ([5]; Oral 10 mg/kg) of the same compound?
Its AUC(0-inf) is 12800 ng·h/mL.

And the Tmax ([5]; Oral 10 mg/kg)?
Its Tmax is 4.67 h.

What about the MRT last ([5]; Oral 10 mg/kg) of the same compound?
Its MRT last is 6.09 h.

What about the MRT inf ([5]; Oral 10 mg/kg) of the same compound?
The MRT inf was 6.21 h.

Which “degradation … in cells” value [2] does the source give for `N#Cc1ccc(N[C@H]2CC[C@H](N(C(=O)NCc3ccccc3)c3ccc(N4CCC(N5CCN(c6ccc7c(c6)C(=O)N(C6CCC(=O)NC6=O)C7=O)CC5)CC4)cc3)CC2)nc1` (stereo partly drawn) [ZLC5-11] here?
Its value is “effectively degrade”.

What about the “degradation of CDK12 and CDK13 proteins” value [2] of the same compound?
The value was “almost completely degraded”.

And the “time dependence of degradation of Cyclin K” value [3]?
The value was “time-dependent degradation effect”.

What about the “degradation of Cyclin K protein” value [3] of the same compound?
Its value is “almost completely degraded”.

What about the “time dependence of degradation of CDK12 and CDK13 proteins” value [4] of the same compound?
Its value is “time-dependent manner”.

With `O=C1CCC(N2C(=O)c3cccc(OCC(=O)N4CCN(c5ccc(N(C(=O)NCc6ccccc6)[C@H]6CC[C@H](Nc7ncc8ccccc8n7)CC6)cc5)CC4)c3C2=O)C(=O)N1` (stereo partly drawn) [YJZ9069] as the compound, how does the “degradation of CDK12 and CDK13 proteins” value ([6]; 100 nM, 6 h (FIG. 5)) read?
The value was “almost completely degrade”.

And the “degradation of CDK12 and CDK13 proteins” value ([6]; 0.5 µM, 15 hours)?
Its value is “almost completely degraded”.

What about the “degradation … in cells” value ([6]; 500 nM, 6 hours, WB (FIG. 4)) of the same compound?
Its value is “effectively degrade”.

What about the “dose dependence of degradation of CDK12 and CDK13 proteins” value ([6]; different concentrations, 6 h (FIG. 4B, FIG. 5)) of the same compound?
Its value is “dose-dependent manner”.

And the F ([7]; PO 10 mg/kg, bioavailability calculated from AUC)?
The F was 5.04%.

What about the Cmax ([7]; rat, in vivo, IV 2.5 mg/kg) of the same compound?
Its Cmax is 3510 ng/mL.

What about the Tmax ([7]; rat, in vivo, IV 2.5 mg/kg) of the same compound?
The Tmax was 0.08 h.

And the clearance ([7]; rat, in vivo, IV 2.5 mg/kg)?
The clearance was 14.1 mL/min/kg.

What about the half-life ([7]; rat, in vivo, IV 2.5 mg/kg) of the same compound?
The half-life was 263 min.

And the Cmax ([7]; rat, in vivo, PO 10 mg/kg)?
The Cmax was 121 ng/mL.

What about the Tmax ([7]; rat, in vivo, PO 10 mg/kg) of the same compound?
Its Tmax is 4 h.

What about the “phosphorylation of serine at position 2 (phoSer2) of RNA Pol II CTD” value [8] of the same compound?
Its value is “inhibited in a dose-dependent manner”.
